Measurements reported in patent US20190282673A1, “STAPHTAME ACTIVITY ON BIOFILMS” (priority 2016, published 2019).
“And” between values parts separate entries of the source, which are not always exact repeats. Equal values may be shown once.

How the values were obtained:
[1] = test system: S. epidermidis biofilms; assay: MBIC and checkerboard synergy on preformed biofilm (MTT assay); type: cell-based, Staphylococcus epidermidis; settings: for MBIC (drug alone): 6 hr treatment; for MBIC: S. epidermidis ATCC 12228 biofilm
Experimental: The ability of P128 to inhibit growth of S. aureus in a preformed biofilm was measured by determining minimum biofilm inhibition concentration (MBIC), defined as minimum concentration showing growth inhibition in a MTT based assay. Since P128 kills Staphylococcus cultures rapidly, it was expected to show a rapid effect on biofilms as well. Paul, et al. (2011) “A novel bacteriophage Tail-Associated Muralytic Enzyme (TAME) from Phage K and its development into a potent antistaphylococcal protein” BMC Microbiol. 11:226.
Culture conditions were optimized for reproducibly obtaining a robust biofilm of S. epidermidis in 96 well microtitre plates. For this purpose, biofilms were generated in microtiter plates and the surface-adhered cultures remaining after washing off the planktonic cells were analyzed at the end of 72 h by MTT dye assay. Briefly, an overnight-grown culture of the S. epidermidis strain was diluted 1:40 in LB broth. 200 μL of diluted culture was aliquoted into microtiter plate wells. Microplates were placed in a shaker-incubator set to 37° C., and 100 rpm for 24 h followed by 48 h incubation under static conditions at 37° C. The contents of wells were aspirated and discarded. Wells were washed twice with 1×PBS and the presence of biofilm in the wells at the end of 72-hour period was determined by metabolic dye-reduction assay method using MTT (3-(4,5-dimethylthiazol-2-yl)-2,5-diphenyltetrazolium bromide; Himedia). In this assay, live cells reduce the dye leading to color formation which can be read at 570 nm and the intensity of color can be correlated to number of live cells.
[…] LB supplemented with 50 μg/mL Ca^++ was used for daptomycin treatment wells. The contents of the well was aspirated out and discarded. The biofilm adhered to the wells was quantified by MTT assay as described above. In each experiment, in addition to the combination MBIC, the MBIC of each drug was also determined individually. The fractional MBIC concentrations were determined by MTT dye method as described above. The FICI and synergy was calculated.

[2] = test system: S. aureus MW2 biofilms; assay: Biofilm eradication/biomass removal, crystal violet staining; type: cell-based, Staphylococcus aureus; settings: for Activity on preformed biofilm, crystal violet: 500 μg/mL for 24 h, MSSA and MRSA strains
Experimental: Dis. 209:1469-78 was followed. Briefly, S. aureus MW2 strain grown on blood agar plates was inoculated into TSB with 2% glucose and the culture was grown overnight. The culture was diluted 1:50 in TSB to achieve an […] of the diluted culture was added to 1.8 mL of TSB media aliquoted into each well of a 24 well plate (˜5×10^5 CFU). The plates were kept at 37° C. under static conditions for 18 h, the contents were aspirated, the wells were washed twice with 2.0 mLmL of 1×PBS, and 1 mLmL of media+1 mLmL of the drug was added to each well and incubated at 37° C. for 0, 2, 4 and 24 h. The contents were aspirated out at the stipulated time points and the wells were washed with 2 mL of 1×PBS. The wells were allowed to dry at 37° C. for 15 min and stained with 1 mLmL of 1% CV for 5 min. The wells were washed with 1 mLmL of 1×PBS, air dried and observed for intensity of blue color.
0.1% CV was used for staining biofilms. Post staining and washing steps, 1 mL 30% acetic acid is added to each well, incubated in RT for 5-10 min, contents in the well are mixed thoroughly and OD was read at 570 nm.

[3] = test system: S. aureus strains BK18 and B9377; assay: Generation and confirmation of antibiotic persisters (CFU over time); type: cell-based, Staphylococcus aureus; settings: for CFU/mL, generation of persisters / CFU/mL, confirmation of persisters (regrown, re-exposed): Vancomycin 100X; for CFU/mL, generation of persisters: Daptomycin 50X MIC; for CFU/mL, confirmation of persisters (regrown, re-exposed): Daptomycin 50×; for Drop in CFU at the end of 4 h treatment: generation of persisters
Experimental: Persisters of S. aureus BK18 and B9377 and S. epidermidis strain B9470 were generated as per protocol described by Lechner, et al (Staphylococcus aureus persisters tolerant to bactericidal antibiotics. Lechner, et al. (2012) J Mol Microbiol Biotechnol; 22(4):235-44). Briefly, colonies were suspended in LB broth and allowed to grow at 37° C., 200 rpm for ˜2 hours. The cultures were pelleted, resuspended in MHB and OD600 was adjusted to 0.5 to 1.0 OD (˜2 to 5×10^8 CFU/mL). […] The test tubes were incubated at 37° C., 200 rpm, and 250 μL was sampled out at 4, 8, and 24 hr time points. This aliquot was pelleted, washed in saline and resuspended in equal volume of saline, diluted and plated on LB agar. Rapid decrease in CFUs, followed by rather stable values for up to 24 hrs, indicated the presence of Daptomycin/Vancomycin tolerant persisters.
After sampling for P128 and antibiotic activity, the rest of the sample was pelleted, washed in saline and resuspended into fresh media (LB). Allowed to grow at 37° C., 200 rpm until it reaches 1 OD and then the same steps followed as done for generation of persisters. A biphasic growth curve similar to that obtained during generation of persisters would indicate the tolerance to be phenotypic and not genotypic.

[4] = test system: S. epidermidis B9470 persisters; assay: P128 and antibiotic activity on persisters (CFU); type: cell-based, Staphylococcus epidermidis; settings: 1×MIC, P128 1 h, antibiotics 6 h
Experimental: Persisters were generated as above were treated with P128 and antibiotics (Ref: Gutiérrez, et al. (2014) Effective Removal of Staphylococcal Biofilms by the Endolysin LysH5 PLoS One 9(9): e107307).
To 450 μL aliquots, P128. Daptomycin and Vancomycin (in saline) were added (individually) each at 1×MIC Conc., and another 450 μL aliquot was taken as control. The persister samples treated with P128 were incubated for 1 h, 37° C., and 200 rpm and those treated with antibiotics were incubated for 6 h, 37° C., and 200 rpm. After incubation samples were serially log diluted and plated.

[5] = S. epidermidis B9470 72 h preformed biofilm
[6] = S. epidermidis B9471 72 h preformed biofilm
[7] = S. epidermidis B9472 72 h preformed biofilm

Molecule: CCCCCCCCCC(=O)N[C@@H](Cc1c[nH]c2ccccc12)C(=O)N[C@H](CC(N)=O)C(=O)N[C@@H](CC(=O)O)C(=O)N[C@@H]1C(=O)NCC(=O)N[C@@H](CCCN)C(=O)N[C@@H](CC(=O)O)C(=O)N[C@H](C)C(=O)N[C@@H](CC(=O)O)C(=O)NCC(=O)N[C@H](CO)C(=O)N[C@@H]([C@H](C)CC(=O)O)C(=O)N[C@@H](CC(=O)c2ccccc2N)C(=O)O[C@@H]1C [Daptomycin, daptomycin]
- MBIC (drug alone) [1, 5]: 15.6 µg/mL
- MBIC (drug alone) [1, 6]: 15.6 µg/mL
- MBIC (drug alone) [1, 7]: 7.8 µg/mL
- Activity on preformed biofilm, crystal violet [2]: insignificant activity
- CFU/mL, generation of persisters ([3]; B9377, 0 h): 2.5 × 10^8 CFU/mL
- CFU/mL, confirmation of persisters (regrown, re-exposed) ([3]; B9377, 0 h): 2.5 × 10^8 CFU/mL
- CFU/mL, generation of persisters ([3]; B9377, 4 h): 4 × 10^3 CFU/mL
- CFU/mL, confirmation of persisters (regrown, re-exposed) ([3]; B9377, 4 h): 6 × 10^3 CFU/mL
- CFU/mL, generation of persisters ([3]; B9377, 8 h): 1 × 10^3 CFU/mL
- CFU/mL, confirmation of persisters (regrown, re-exposed) ([3]; B9377, 8 h): 1 × 10^3 CFU/mL
- CFU/mL, generation of persisters ([3]; B9377, 24 h): 5.5 × 10^3 CFU/mL
- CFU/mL, confirmation of persisters (regrown, re-exposed) ([3]; B9377, 24 h): 9 × 10^2 CFU/mL
- CFU/mL, generation of persisters ([3]; BK18, 0 h): 2 × 10^8 CFU/mL
- CFU/mL, confirmation of persisters (regrown, re-exposed) ([3]; BK18, 0 h): 1 × 10^8 CFU/mL
- CFU/mL, generation of persisters ([3]; BK18, 4 h): 3 × 10^3 CFU/mL
- CFU/mL, confirmation of persisters (regrown, re-exposed) ([3]; BK18, 4 h): 3 × 10^2 CFU/mL
- CFU/mL, generation of persisters ([3]; BK18, 8 h): 1 × 10^3 CFU/mL
- CFU/mL, confirmation of persisters (regrown, re-exposed) ([3]; BK18, 8 h): 1 × 10^2 CFU/mL
- CFU/mL, generation of persisters ([3]; BK18, 24 h): 5 × 10^3 CFU/mL
- CFU/mL, confirmation of persisters (regrown, re-exposed) ([3]; BK18, 24 h): 6 × 10^2 CFU/mL
- Drop in CFU at the end of 4 h treatment [3]: 5 log
- CFU/mL after treatment of persisters ([4]; B9470 Daptomycin persisters): 1.3 × 10^6 CFU/mL
- CFU/mL after treatment of persisters ([4]; B9470 Vancomycin persisters): 2.1 × 10^2 CFU/mL

Molecule: CC(=O)NC[C@H]1CN(c2ccc(N3CCOCC3)c(F)c2)C(=O)O1 [Linezolid, linezolid]
- MBIC (drug alone) [1, 5]: 7.8 µg/mL
- MBIC (drug alone) [1, 6]: 250 µg/mL
- MBIC (drug alone) [1, 7]: 250 µg/mL
- Activity on preformed biofilm, crystal violet [2]: insignificant activity

Molecule: CN[C@H](CC(C)C)C(=O)N[C@H]1C(=O)N[C@@H](CC(N)=O)C(=O)N[C@H]2C(=O)N[C@H]3C(=O)N[C@H](C(=O)N[C@H](C(=O)O)c4cc(O)cc(O)c4-c4cc3ccc4O)[C@H](O)c3ccc(c(Cl)c3)Oc3cc2cc(c3O[C@@H]2O[C@H](CO)[C@@H](O)[C@H](O)[C@H]2O[C@H]2C[C@](C)(N)[C@H](O)[C@H](C)O2)Oc2ccc(cc2Cl)[C@H]1O [Vancomycin, vancomycin]
- MBIC (drug alone) [1, 5]: 7.8 µg/mL
- MBIC (drug alone) [1, 6]: 250 µg/mL
- MBIC (drug alone) [1, 7]: 250 µg/mL
- Activity on preformed biofilm, crystal violet [2]: insignificant activity
- CFU/mL, generation of persisters ([3]; B9377, 0 h): 2.5 × 10^8 CFU/mL
- CFU/mL, confirmation of persisters (regrown, re-exposed) ([3]; B9377, 0 h): 1.5 × 10^8 CFU/mL
- CFU/mL, generation of persisters ([3]; B9377, 4 h): 8 × 10^6 CFU/mL
- CFU/mL, confirmation of persisters (regrown, re-exposed) ([3]; B9377, 4 h): 2 × 10^6 CFU/mL
- CFU/mL, generation of persisters ([3]; B9377, 8 h): 1.9 × 10^6 CFU/mL
- CFU/mL, confirmation of persisters (regrown, re-exposed) ([3]; B9377, 8 h): 2 × 10^6 CFU/mL
- CFU/mL, generation of persisters ([3]; B9377, 24 h): 1.1 × 10^5 CFU/mL
- CFU/mL, confirmation of persisters (regrown, re-exposed) ([3]; B9377, 24 h): 8 × 10^5 CFU/mL
- CFU/mL, generation of persisters ([3]; BK18, 0 h): 2 × 10^8 CFU/mL
- CFU/mL, confirmation of persisters (regrown, re-exposed) ([3]; BK18, 0 h): 1 × 10^8 CFU/mL
- CFU/mL, generation of persisters ([3]; BK18, 4 h): 1 × 10^7 CFU/mL
- CFU/mL, confirmation of persisters (regrown, re-exposed) ([3]; BK18, 4 h): 2.5 × 10^5 CFU/mL
- CFU/mL, generation of persisters ([3]; BK18, 8 h): 2 × 10^6 CFU/mL
- CFU/mL, confirmation of persisters (regrown, re-exposed) ([3]; BK18, 8 h): 1 × 10^5 CFU/mL
- CFU/mL, generation of persisters ([3]; BK18, 24 h): 4 × 10^5 CFU/mL
- CFU/mL, confirmation of persisters (regrown, re-exposed) ([3]; BK18, 24 h): 1 × 10^5 CFU/mL
- Drop in CFU at the end of 4 h treatment [3]: Approximately two log drop in CFU
- CFU/mL after treatment of persisters ([4]; B9470 Daptomycin persisters): 5 × 10^5 CFU/mL
- CFU/mL after treatment of persisters ([4]; B9470 Vancomycin persisters): 1.5 × 10^3 CFU/mL

B1: P128: anti-staphylococcal chimeric protein: phage tail associated muralytic enzyme (TAME) cell wall-degrading region plus staphylococcus-specific binding region; SEQ ID NO: 1 (protein)
chain: MSLDSLKKYNGKLPKHDPSFVQPGNRHYKYQCTWYAYNRRGQLGIPVPLWGDAADWIGGAKGAGYGVGRTPKQGACVIWQRGVQGGSPQYGHVAFVEKVLDGGKKIFISEHNYATPNGYGTRTIDMSSAIGKNAQFIYDKKLETPNTGWKTNKYGTLYKSESASFTPNTDIITRTTGPFRSMPQSGVLKAGQTIHYDEVMKQDGHVWVGYTGNSGQRIYLPVRTWNKSTNTLGVLWGTIK
modifications: P128 chimera
- MBIC ([1]; 4 h): 7.8 µg/mL
- MBIC ([1]; 6 h): 7.8 µg/mL
- MBIC ([1]; 8 h): 7.8 µg/mL
- MBIC ([1]; 24 h): >1000 µg/mL
- MBIC (drug alone) [1, 5]: 32 µg/mL and 16 µg/mL
- MBIC (drug alone) [1, 6]: 32 µg/mL
- MBIC (drug alone) [1, 7]: 32 µg/mL
- Time of treatment to eliminate the biofilms ([2]; P128 at 1×MIC (8 μg/mL)): ≤ 2 h
- OD570 of crystal violet vs cell control ([2]; even after 24 h): significant drop in OD
- CFU/mL after treatment of persisters ([4]; B9470 Daptomycin persisters): 2.5 × 10^2 CFU/mL
- CFU/mL after treatment of persisters ([4]; B9470 Vancomycin persisters): 7 × 10^1 CFU/mL
